Assay results published in PMC12131194, “Rational design, synthesis, and evaluation of novel polypharmacological compounds targeting NaV1.5, KV1.5, and K2P channels for atrial fibrillation” (The Journal of Biological Chemistry, 2025).

Columns and labels:
h KV1.5 = molecular target: T1, h KV1.5 (Homo sapiens, UniProt P22460); assay: TEVC recordings in X. laevis oocytes, KV1.5; assay type: cell-based; conditions: for Ionic current block IKur: from inhibition curves, used for simulation
T1 construct: h KV1.5 (KCNA5, NM_002234); expressed in transfected cells; host or cells: Xenopus laevis oocytes injected with cRNA
Experimental: The two-electrode voltage clamp (TEVC) technique was used for electrophysiology tests. Channels were expressed in Xenopus laevis oocytes. The initial channel-blocking potential was assessed at 100 μM for the 10 synthesized compounds on TASK-1 and KV1.5 channels.
To obtain X. laevis oocytes, the frogs were anesthetized with 2 g/L of tricaine methanesulfonate, and the ovarian lobes were mechanically separated with forceps. The oocytes were incubated for 120 min in an OR2 solution containing in mM: NaCl 82.5, KCl 2, MgCl2 1, HEPES 5 (pH 7.5) supplemented with 2 mg/ml of collagenase II (Sigma) to remove residual connective tissue and obtain individual oocytes. Subsequently, the oocytes were washed with a ND96 solution containing in mM: NaCl 96, KCl 2, CaCl2 1.8, MgCl2 1, HEPES 5 (pH 7.5, adjusted with NaOH) and stored at 18 °C in ND96 solution supplemented with 1 ml of gentamicin (50 mg/L), sodium pyruvate (275 mg/L) and (90 mg/L) theophylline (inhibits further oocyte maturation) before and after RNA injection.
In order to overexpress the channel in the oocyte, each of the channels to be measured was subcloned (complementary DNA (cDNA); human TASK-1 (KCNK3, NM_002246), h KV1.5 (KCNA5, NM_002234), h NaV1.5 (hH1, M77235), TASK-4/TALK-2 (KCNK17, NM_AF358910), TREK-1 (KCNK2, AF004711) and Kir2.1 (KCNJ2, NM_017296) into pSGEM, pBF1 or pSP64 expression vector, and the cDNA was linearized with NheI or MluI. Complementary RNA (cRNA) was synthesized with the mMESSAGE mMACHINE-Kit (Ambion). The quality of the cRNA was tested on an agarose gel by electrophoresis. cRNA was quantified using a UV-Vis spectrophotometer (NanoDrop 2000). Subsequently, the channel was transfected in the oocytes in stages V and VI, for which […] (TASK-1, KV1.5 or TREK-1), 10 ng (NaV1.5 or TASK-4) o 2.5 ng (Kir2.1) per oocyte of cRNA was injected with a NanojectII microinjector (Drummond Scientific). The oocytes were stored in 24-well plates for 24 to 48 h at 18 °C. After this time, the overexpression of each channel was monitored through electrophysiology.
Two-electrode voltage clamp measurements were performed 24 or 48 h after cRNA injection at room temperature (20–22 °C) in ND96 recording solution with a TurboTEC-10CD (npi) amplifier and a Digidata 1550B (for TASK-1 and KV1.5) and 1440A (for NaV1.5) A/D converter from Axon Instruments. Micropipettes were fabricated from GB 150 TF-8P borosilicate glass capillaries (Science Products) elongated in a DMZ-Universal Puller (Zeitz, Germany). […] ND96 was used as bath solution. Data acquisition was performed using Clampex 10 software (Axon Instruments), and data were analyzed with ClampFit 10 (Axon Instruments) and Origin 7 (Origin Lab Corporation).
For compound inhibition testing, from a holding potential of −80 mV a first test pulse to 0 mV of 1 s duration was followed by a repolarization step at −80 mV for 1 s, directly followed by another 1 s test pulse at +40 mV. The sweep time interval was 10 s for KV1.5 and TASK-1 channels. For the NaV1.5 channel, the block was analyzed with voltage steps from a holding potential of −80 mV. A first depolarizing pulse to −30 mV of 50 ms duration was applied, followed by a 5 ms step to −80 mV. The sweep time interval was 5 s. The compounds were applied at different concentrations to determine the half-maximal inhibitory concentration (IC50), using a fit to the Hill equation.
To test for a putative voltage-dependence of the block by the compound 6f in KV1.5, a 1.5 s voltage step protocol from −80 to +80 mV with +20 mV increments was used. The holding potential was −80 mV and the sweep time interval was 10 s. Currents were analyzed at the end of the voltage pulse. For TASK-1, voltage-dependence of block was probed using a high-potassium solution (KD96) containing in mM: KCl 96, NaCl 2, CaCl2 1.8, MgCl2 1, HEPES 5, (pH 7.5, adjusted with KOH). From a holding potential of 0 mV, voltage was stepped from −80 mV to +80 mV for 1.5 s in +20 mV steps every 10 s. […]

human erythrocytes = assay: Hemolysis assay; assay type: cell-based; conditions: 0.2–400 μM, 2 hours, 37 °C
Experimental: To evaluate cytotoxicity, the hemolysis of the compounds with the best simultaneous blocking activity on the channels (6e, 6f, 7a, 7b and 7c) was considered, modifying the protocol of Chen 2018 ([112]). Thus, non-heparinized human blood was collected. Erythrocytes were washed three times in 1× PBS (phosphate-buffered saline: NaCl, 8 g/L; KCl, 0.2 g/L; Na2HPO4, 1.44 g/L; and KH2PO4, 0.24 g/L; pH 7.4) and then used to prepare a 3% red blood cell (RBC) suspension. The assay was performed in a 96-well polypropylene microplate.
The compounds were prepared from 200 mM stock solutions in DMSO. Subsequently, 1:2 serial dilutions were made in 1× PBS, with final concentrations from 400 to 0.2 μM to a final volume of 200 μl per well. The microplate was incubated for 2 h at 37 °C and centrifuged at 3400 rpm for 5 min. Finally, 100 μl of the supernatant was transferred and measured in a 96-well plate. Hemoglobin release was monitored by photometric analysis of the supernatant at 540 nm using an Epoch Microplate Spectrophotometer (BioTek Instruments, Inc. Winooski, Vermont 05404-0998).
A 3% RBC suspension treated with Tween 20 was used to obtain total lysis as a positive control. Other authors who performed hemolysis assays have also considered this and other detergents, such as Triton X-100 and Sodium Dodecyl Sulfate (SDS) as positive controls ([113], [114], [115], [116]). The negative control was a suspension of red blood cells with PBS. Each experiment was performed in triplicate at all concentrations used. The percentage of hemolysis was calculated with the following (Equation 1), where Ad: absorbance of the dilution, A0: absorbance of the blank (RBC suspension with PBS), and At: total absorbance (positive control).(1) %hemolysis=Ad−A0/At−A0x100

T1 sequence (P22460 whole entry): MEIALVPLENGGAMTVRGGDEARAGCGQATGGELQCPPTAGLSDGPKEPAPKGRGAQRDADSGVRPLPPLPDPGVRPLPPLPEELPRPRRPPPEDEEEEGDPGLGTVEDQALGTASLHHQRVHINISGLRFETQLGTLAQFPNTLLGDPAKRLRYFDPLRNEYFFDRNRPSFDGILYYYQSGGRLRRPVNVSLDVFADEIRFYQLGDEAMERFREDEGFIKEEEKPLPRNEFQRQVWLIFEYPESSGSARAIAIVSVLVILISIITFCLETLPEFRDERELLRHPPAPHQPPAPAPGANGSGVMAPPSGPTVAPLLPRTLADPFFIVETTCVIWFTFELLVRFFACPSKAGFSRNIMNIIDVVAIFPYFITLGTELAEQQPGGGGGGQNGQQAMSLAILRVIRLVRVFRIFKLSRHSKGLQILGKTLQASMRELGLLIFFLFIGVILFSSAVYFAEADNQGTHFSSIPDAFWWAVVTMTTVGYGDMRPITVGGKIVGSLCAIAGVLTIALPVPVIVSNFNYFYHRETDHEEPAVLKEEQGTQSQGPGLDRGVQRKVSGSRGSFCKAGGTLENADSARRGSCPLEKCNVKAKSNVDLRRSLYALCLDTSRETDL

CCCCN(CCCC)CC(=O)Nc1ccc(OC)cc1OC [Compound 6f, 2-(dibutylamine)-N-(2,4-dimethoxiphenyl)acetamide]
Ionic current block IKur (h KV1.5; 1 μM): 0% | Ionic current block IKur (h KV1.5; 10 μM): 2.5% | inhibition at 100 µM (h KV1.5; 100 μM, +40 mV, oocytes, mean ± SD): 55.8 ± 11.5% | Ionic current block IKur (h KV1.5; 100 μM): 50% | IC50 (h KV1.5; X. laevis oocytes, TEVC, block at +40 mV): 81.5 µM | Voltage-dependence of block of KV1.5 (h KV1.5; oocytes, 100 μM): no significant voltage-dependence | Hemolytic effect (human erythrocytes): no hemolytic effect
